Reference: US8119630B2 (Arrow Therapeutics Limited, priority 2002, dated 2012)

Assays:
[1] = system: Hep-2 cells; test: Toxicity studies (XTT), Hep-2 cells; assay type: cell-based; set-up: TC50 (6d): unit not given beside the values; settings: for TC50 (6d): Table 2, Examples 75 to 82 and 125 to 184, 6d, in µM; for TC50 (2d): Table 2, Examples 75 to 82 and 125 to 184, 2d
Description: (§1) The inner 60 wells of 96 well tissue culture plates were seeded with Hep-2 cells at 4×10^4 cells/well for compound activity and toxicity studies in 100 μl of medium and incubated at 37° C. overnight or until nearing confluency.
Cells were infected with 25 μl RSV previously titrated to give 80% cell kill. To each well 25 μM of test compound were added. The final DMSO concentration was 0.5%. […] Some 0.25 μl/ml PMS were added to stock […] solution, final conc. 25 μM PMS. Then 25 μl warmed XTT/PMS solution were added to each well and incubated for 1 hour at 37° C.

[2] = system: RSV; test: XTT assay, RSV-infected Hep-2 cells; assay type: cell-based, Respiratory Syncytial Virus (RSV); settings: Table 2, Examples 75 to 82 and 125 to 184, Hep-2 cells infected with RSV, 6 days at 37° C.
Description: Examples 75 to 82 and 125 to 184 were tested according to the protocol described below.
as §1
Cells were infected with 25 μl RSV previously titrated to give 80% cell kill. To each well 25 μM of test compound were added. The final DMSO concentration was 0.5%. Some 200 μl of sterile distilled water were added to the outer wells of the plate and incubated at 37° C. for 6 days. Some 0.25 μl/ml PMS were added to stock […] solution, final conc. 25 μM PMS. Then 25 μl warmed XTT/PMS solution were added to each well and incubated for 1 hour at 37° C.
Maximum OD450nm reading (uninfected, untreated control cells) corresponded to 100% inhibition. Minimum OD450nm readings (infected control cells) corresponded to 0% inhibition. Log 10 concentration was plotted against OD450nm and IC50 values were calculated from either reading 50% value from graph or using regression analysis.

[3] = human respiratory syncytial virus, 144 h

| Compound | TC50 (6d) [1] | IC50 [2, 3] [µM] | IC50 [2] [µM] | TC50 (2d) [1] [µM] |
| --- | --- | --- | --- | --- |
| O=C(NC1N=C(c2ccccc2)c2ccccc2NC1=O)c1ccccc1O (centres unmarked) [Example 80a, 2-Hydroxy-N-(2-oxo-5-phenyl-2,3-dihydro-1H-benzo[e][1,4]diazepin-3-yl)-benzamide] | 33 | 8.7 | – | – |
| O=C(N[C@H]1N=C(c2ccccc2)c2ccccc2NC1=O)c1ccccc1O [Example 80b, (S)-2-Hydroxy-N-(2-oxo-5-phenyl-2,3-dihydro-1H-benzo[e][1,4]diazepin-3-yl)-benzamide] | >50 | 2 | – | – |
| O=C(NC1N=C(c2ccccc2)c2ccccc2NC1=O)c1cccc2cc[nH]c12 (centres unmarked) [Example 81a, 1H-Indole-7-carboxylic acid (2-oxo-5-phenyl-2,3-dihydro-1H-benzo[e][1,4]diazepin-3-yl)-amide] | 63 | 8.4 | – | – |
| O=C(N[C@H]1N=C(c2ccccc2)c2ccccc2NC1=O)c1cccc2cc[nH]c12 [Example 81b] | 35.6 | – | 1.2 | – |
| COc1cc2ccccc2cc1C(=O)NC1N=C(c2ccccc2)c2ccccc2NC1=O (centres unmarked) [Example 82a, 3-Methoxy-naphthalene-2-carboxylic acid (2-oxo-5-phenyl-2,3-dihydro-1H-benzo[e][1,4]diazepin-3-yl)-amide] | >50 | 6.7 | – | – |
| COc1cc2ccccc2cc1C(=O)N[C@H]1N=C(c2ccccc2)c2ccccc2NC1=O [Example 82b, (S)-3-Methoxy-naphthalene-2-carboxylic acid (2-oxo-5-phenyl-2,3-dihydro-1H-benzo[e][1,4]diazepin-3-yl)-amide] | >50 | 1.5 | – | – |
| COc1ccc(C(C)(C)C)cc1C(=O)NC1N=C(c2ccccc2)c2ccccc2NC1=O (centres unmarked) [Example 125, 5-tert-Butyl-2-methoxy-N-(2-oxo-5-phenyl-2,3-dihydro-1H-benzo[e][1,4]diazepin-3-yl)-benzamide] | >50 | 6.1 | – | – |
| COc1ccc(OC)c(C(=O)NC2N=C(c3ccccc3)c3ccccc3NC2=O)c1 (centres unmarked) [Example 126, 2,5-Dimethoxy-N-(2-oxo-5-phenyl-2,3-dihydro-1H-benzo[e][1,4]diazepin-3-yl)-benzamide] | >50 | 5.4 | – | – |
| O=C(Nc1c(F)cccc1F)NC1N=C(c2ccccc2)c2ccccc2NC1=O (centres unmarked) [Example 127, 1-(2,6-Difluoro-phenyl)-3-(2-oxo-5-phenyl-2,3-dihydro-1H-benzo[e][1,4]diazepin-3-yl)-urea] | >50 | 9.4 | – | – |
| O=C(Nc1cccc(F)c1)NC1N=C(c2ccccc2)c2ccccc2NC1=O (centres unmarked) [Example 128, 1-(3-Fluoro-phenyl)-3-(2-oxo-5-phenyl-2,3-dihydro-1H-benzo[e][1,4]diazepin-3-yl)-urea] | >50 | 6.1 | – | – |
| COc1cccc(NC(=O)NC2N=C(c3ccccc3)c3ccccc3NC2=O)c1 (centres unmarked) [Example 129, 1-(3-Methoxy-phenyl)-3-(2-oxo-5-phenyl-2,3-dihydro-1H-benzo[e][1,4]diazepin-3-yl)-urea] | >50 | 4.9 | – | – |
| O=C(Nc1cccc(C(F)(F)F)c1)NC1N=C(c2ccccc2)c2ccccc2NC1=O (centres unmarked) [Example 130, 1-(2-Oxo-5-phenyl-2,3-dihydro-1H-benzo[e][1,4]diazepin-3-yl)-3-(3-trifluoromethyl-phenyl)-urea] | 39.5 | 9.7 | – | – |
| O=C(Nc1cccc(Cl)c1)NC1N=C(c2ccccc2)c2ccccc2NC1=O (centres unmarked) [Example 131] | >50 | – | 9.6 | – |
| COc1cc(SC)ccc1C(=O)NC1N=C(c2ccccc2)c2ccccc2NC1=O (centres unmarked) [Example 132, 2-Methoxy-4-methylsulfanyl-N-(2-oxo-5-phenyl-2,3-dihydro-1H-1-benzo[e][1,4]diazepin-3-yl)-benzamide] | >50 | – | 6.3 | – |
| CS(=O)(=O)c1ccc(C(=O)NC2N=C(c3ccccc3)c3ccccc3NC2=O)cc1 (centres unmarked) [Example 133, 4-Methanesulfonyl-N-(2-oxo-5-phenyl-2,3-dihydro-1H-benzo[e][1,4]diazepin-3-yl)-benzamide] | 77.2 | 6.2 | – | – |
| COC(=O)c1ccc(C(=O)NC2N=C(c3ccccc3)c3ccccc3NC2=O)cc1 (centres unmarked) [Example 134, N-(2-Oxo-5-phenyl-2,3-dihydro-1H-benzo[e][1,4]diazepin-3-yl)terephthalamic acid methyl ester] | 77.1 | 6.5 | – | – |

| Compound | TC50 (6d) [1] | IC50 [2, 3] [µM] | IC50 [2] [µM] | TC50 (2d) [1] [µM] |
| --- | --- | --- | --- | --- |
| O=C(NC1N=C(c2ccccc2)c2ccccc2NC1=O)c1ccccc1F (centres unmarked) [Example 135, 2-Fluoro-N-(2-oxo-5-phenyl-2,3-dihydro-1H-benzo[e][1,4]diazepin-3-yl)-benzamide] | >50 | 9.5 | – | – |
| O=C(NC1N=C(c2ccccc2)c2ccccc2NC1=O)c1c(F)cccc1F (centres unmarked) [Example 136, 2,6-Difluoro-N (2-oxo-5-phenyl-2,3-dihydro-1H-benzo[e][1,4]diazepin-3-yl)-benzamide] | >50 | – | 8.7 | – |
| CCCOc1ccccc1C(=O)NC1N=C(c2ccccc2)c2ccccc2NC1=O (centres unmarked) [Example 137, N-(2-Oxo-5-phenyl-2,3-dihydro-1H-benzo[e][1,4]diazepin-3-yl)-2-propoxy-benzamide] | >50 | 8.3 | – | – |
| O=C(NC1N=C(c2ccccc2)c2ccccc2NC1=O)c1ccccc1I (centres unmarked) [Example 138, 2-Iodo-N-(2-oxo-5-phenyl-2,3-dihydro-1H-benzo[e][1,4]diazepin-3-yl)-benzamide] | 51 | 8.3 | – | – |
| COC(=O)c1ccc(C(=O)NC2N=C(c3ccccc3)c3ccccc3NC2=O)c(OC)c1 (centres unmarked) [Example 139, 3-Methoxy-N-(2-oxo-5-phenyl-2,3-dihydro-H-benzo[e][1,4]diazepin-3-yl)-terephthalamic acid methyl ester] | 98 | – | 9.2 | – |
| COc1cc(N)c(Cl)cc1C(=O)NC1N=C(c2ccccc2)c2ccccc2NC1=O (centres unmarked) [Example 140, 4-Amino-5-chloro-2-methoxy-N-(2-oxo-5-phenyl-2,3-dihydro-1H-benzo[e][1,4]diazepin-3-yl)-benzamide] | 68 | 2.5 | – | – |
| CSc1ccccc1C(=O)NC1N=C(c2ccccc2)c2ccccc2NC1=O (centres unmarked) [Example 142, 2-Methylsulfanyl-N-(2-oxo-5-phenyl-2,3-dihydro-1H-benzo[e][1,4]diazepin-3-yl)-benzamide] | >50 | 9.4 | – | – |
| COc1ccc(S(N)(=O)=O)cc1C(=O)NC1N=C(c2ccccc2)c2ccccc2NC1=O (centres unmarked) [Example 143, 2-Methoxy-N-(2-oxo-5-phenyl-2,3-dihydro-1H-benzo[e][1,4]diazepin-3-yl)-5-sylfamoyl-benzamide] | – | – | 3.8 | > 50 |
| O=C(NC1N=C(c2ccccc2)c2ccccc2NC1=O)C(O)Cc1ccccc1 (centres unmarked) [Example 144, 2-Hydroxy-N-(2-oxo-5-phenyl-2,3-dihydro-1H-benzo[e][1,4]diazepin-3-yl)-3-phenyl-propionamide] | – | 5.5 | – | > 50 |
| O=C(CC(O)c1ccccc1)NC1N=C(c2ccccc2)c2ccccc2NC1=O (centres unmarked) [Example 145, 3-Hydroxy-N-(2-oxo-5-phenyl-2,3-dihydro-1H-benzo[e][1,4]diazepin-3-yl)-3-phenyl-propionamide] | – | 1.9 | – | > 50 |
| CN(C(=O)Nc1ccccc1F)C1N=C(c2ccccc2)c2ccccc2NC1=O (centres unmarked) [Example 146, 3-(2-Fluoro-phenyl)-1-methyl-1-(2-oxo-5-phenyl-2,3-dihydro-1H-benzo[e][1,4]diazepin-3-yl)-urea] | – | 9.5 | – | > 50 |
| COc1cc([N+](=O)[O-])ccc1C(=O)N(C)C1N=C(c2ccccc2)c2ccccc2NC1=O (centres unmarked) [Example 147, 2-Methoxy-N-methyl-4-nitro-N-(2-oxo-5-phenyl-2,3-dihydro-1H-benzo[e][1,4]diazepin-3-yl)-benzamide] | – | 15.9 | – | > 50 |
| CC(C)(C)NC(=O)NC1N=C(c2ccccc2)c2ccccc2NC1=O (centres unmarked) [Example 148, 1-tert-Butyl-3-(2-oxo-5-phenyl-2,3-dihydro-1H-benzo[e][1,4]diazepin-3-yl)-urea] | >100 | 5 | – | > 100 |
| O=C(NC1CCCCC1)NC1N=C(c2ccccc2)c2ccccc2NC1=O (centres unmarked) [Example 149, 1-Cyclohexyl-3-(2-oxo-5-phenyl-2,3-dihydro-1H-benzo[e][1,4]diazepin-3-yl)-urea] | >100 | 1.5 | – | > 100 |
| CCNC(=O)NC1N=C(c2ccccc2)c2ccccc2NC1=O (centres unmarked) [Example 150, 1-Ethyl-3-(2-oxo-5-phenyl-2,3-dihydro-1H-benzo[e][1,4]diazepin-3-yl)-urea] | >100 | 2 | – | > 100 |
| CCCCNC(=O)NC1N=C(c2ccccc2)c2ccccc2NC1=O (centres unmarked) [Example 151, 1-Butyl-3-(2-oxo-5-phenyl-2,3-dihydro-1H-benzo[e][1,4]diazepin-3-yl)-urea] | >100 | 1.5 | – | > 100 |
